Patent publication US20260159520A1, “HETEROBIFUNCTIONAL COMPOUNDS AND METHODS OF TREATING DISEASE” (Halda Therapeutics OpCo, Inc., priority 2022, published 2026)

Key:
Assay type in all cases: cell-based
T47D cells = experiment: Cellular growth inhibition assay for T47D cells; settings: Homo sapiens, 72 hours, CellTiter-Glo 2.0
How it was run: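 Luminescence from CellTiter-Glo 2.0 after 72 h of compound exposure gives the viability signal. Cells grew in insulin-supplemented (0.2 units/mL) DMEM with 10% FBS and were treated one day after seeding at 0.5% DMSO. GI50 values come from four-parameter nonlinear regression.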

VCaP cells = experiment: Cellular growth inhibition assay for VCaP cells; settings: Homo sapiens, 72 hours, CellTiter-Glo 2.0
[1] = test system: T-Rex 293 cell line SC3 cells lacking increased expression of androgen receptor protein; experiment: Cellular growth inhibition, T-Rex 293 SC3 cells without doxycycline; settings: not exposed to doxycycline, 72 hours, CellTiter-Glo 2.0
How it was run: (§1)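 Growth inhibition is measured in an inducible AR-expressing T-Rex 293 clone, SC3, cultured with or without 10 ng/mL doxycycline in hormone-depleted medium. Test compounds are applied for 72 hours. GI50 values derive from CellTiter-Glo 2.0 signal fitted by four-parameter regression.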

[2] = test system: T-Rex 293 cell line SC3 cells having increased expression of androgen receptor protein; experiment: Cellular growth inhibition, T-Rex 293 SC3 cells with doxycycline (increased androgen receptor expression); settings: with 10 ng/mL doxycycline (increased androgen receptor), 72 hours, CellTiter-Glo 2.0
How it was run: as §1

Row | SMILES | GI50 (T47D cells) [nM] | GI50 (VCaP cells) [nM] | GI50 [1] [nM] | GI50 [2] [nM]
1 | CCc1cnn2c(NCc3ccc(N4CCC(N5CCN(C6CN(c7ncc(C(=O)N[C@H]8C(C)(C)[C@H](Oc9ccc(C#N)c(Cl)c9)C8(C)C)cn7)C6)CC5)CC4)nc3)cc(N3CCCC[C@H]3CCO)nc12 [Compound I-86] | < 500 | < 100 | < 100 | < 100
2 | CC1(C)[C@H](NC(=O)c2cnc(N3CCC(CN4CCN(CCN5C/C=C/CCOc6cccc(c6)-c6ccnc(n6)Nc6cccc(c6)C5)CC4)CC3)nc2)C(C)(C)[C@H]1Oc1ccc(C#N)c(Cl)c1 [Compound I-94] | > 3000 | > 3500 | 1000 to 3500 | 100 to 1000
3 | Cc1ncc(-c2nc(Nc3ccc(C(=O)N4CC[C@H](N(C)CCOC5CCN(c6ncc(C(=O)N[C@H]7C(C)(C)[C@H](Oc8ccc(C#N)c(Cl)c8)C7(C)C)cn6)CC5)C4)cc3)ncc2F)n1C(C)C [Compound I-95, N-[3-(3-chloro-4-cyano-phenoxy)-2,2,4,4-tetramethyl-cyclobutyl]-2-[4-[2-[[(3S)-1-[4-[[5-fluoro-4-(3-isopropyl-2-methyl-imidazol-4-yl)pyrimidin-2-yl]amino]benzoyl]pyrrolidin-3-yl]-methyl-amino]ethoxy]-1-piperidyl]pyrimidine-5-carboxamide] | 500 to 1500 | 1000 to 3500 | 1000 to 3500 | 1000 to 3500
4 | Cc1ncc(-c2nc(Nc3ccc(C(=O)N4CC[C@H](N(C)CCOCCOCCOC5CCN(c6ncc(C(=O)N[C@H]7C(C)(C)[C@H](Oc8ccc(C#N)c(Cl)c8)C7(C)C)cn6)CC5)C4)cc3)ncc2F)n1C(C)C [Compound I-96] | 1500 to 3000 | 1000 to 3500 | 1000 to 3500 | 100 to 1000
5 | Cc1ncc(-c2nc(Nc3ccc(C(=O)N4CC[C@H](N(C)CCOCCOCCOCCOCCOC5CCN(c6ncc(C(=O)N[C@H]7C(C)(C)[C@H](Oc8ccc(C#N)c(Cl)c8)C7(C)C)cn6)CC5)C4)cc3)ncc2F)n1C(C)C [Compound I-97] | 1500 to 3000 | 1000 to 3500 | 1000 to 3500 | 1000 to 3500
6 | CCc1cnn2c(NCc3ccc(OCCCN4CCN(CC5CCN(c6ccc(C(=O)N[C@H]7C(C)(C)[C@H](Oc8ccc(C#N)c(Cl)c8)C7(C)C)cc6)CC5)CC4)nc3)cc(N3CCCC[C@@H]3CCO)nc12 [II-1, N-((1r,3r)-3-(3-chloro-4-cyanophenoxy)-2,2,4,4-tetramethylcyclobutyl)-4-(4-((4-(3-((5-(((3-ethyl-5-((R)-2-(2-hydroxyethyl)piperidin-1-yl)pyrazolo[1,5-a]pyrimidin-7-yl)amino)methyl)pyridin-2-yl)oxy)propyl)piperazin-1-yl)methyl)piperidin-1-yl)benzamide] | < 500 | < 100 | 100 to 1000 | < 100
